According to US10154958B1 (King Abdulaziz University, priority 2017, dated 2018):
Marks after values point to notes of the source that are not given here.

Key:
Trichomonas vaginalis = experiment: In vitro susceptibility of Trichomonas vaginalis isolates (flagellar motility); format: cell-based; conditions: 37° C.; for Mean % cells with motility after 48 hrs of aerobic contact: 500 cells/100 μL + 100 μL composition or metranidazole 25 μg/ml
Procedure: Fresh isolates of Trichomonas vaginalis were collected from 30-38 years old women. The procedure of vaginal smearing and reconstituting medium of the collected specimens were performed according to the procedure in Meingassner and Thumer, Antimicrobial agents and Chemotherapy, Vol 15, pp 254-257,1979, incorporated herein by reference in its entirety. Each isolate was adjusted to a viable count of 5,000 cells/ml, using a hemocytometer. A reconstituting diluent, Diamond's TYM supplemented with 10% horse serum, was used. The isolates were tested with the composition and a commonly used drug, metranidazole.
The number of cells in each well was 500 cells/100 μL of medium. […] Metranidazole was included as a reference at a concentration of 25 μg/ml. Metranidazole (100 μL) was also kept in contact with 500 cells/100 μL of the 20 isolates of Trichomonas vaginalis in the presence of oxygen for 48 hours at 37° C. Control triplicate wells were included in which the Trichomonas vaginalis cells of each of the 20 isolates were put in contact with equal volume of Diamond's TYM supplemented with 10% horse serum. The motility of flagella of the cells was observed after 48 hrs under an inverted-phase contrast microscope. The percentage of cells losing flagellar motility was determined.

Gardnerella vaginalis = experiment: Disc diffusion susceptibility of Gardnerella vaginalis isolates; format: cell-based; conditions: of the 20 isolates of Gardnerella vaginalis; reference disc 5 mcg/disc
Procedure: Twenty isolates of each of Gardnerella vaginalis and Candida albicans were collected from human vaginosis cases. […] The disc diffusion method was used. For Gardnerella vaginalis, the Mueller-Hinton agar supplemented with 5% human serum medium was used.
The discs were incubated aerobically for 48 hrs at 35° C., the diameter of the discs inhibition zones were measured in millimeter, and interpreted by using the chart provided by Hudzicki, American Society for Microbiology, www.asm.org.2013, incorporated herein by reference in its entirety.

## Cc1ncc([N+](=O)[O-])n1CCO [Metranidazole, metranidazole]
Trichomonas vaginalis; isolate 1
  Mean % cells with motility after 48 hrs of aerobic contact: 4.0%
Trichomonas vaginalis; isolate 2
  Mean % cells with motility after 48 hrs of aerobic contact: 0.0%
Trichomonas vaginalis; isolate 3
  Mean % cells with motility after 48 hrs of aerobic contact: 1.5%
Trichomonas vaginalis; isolate 4
  Mean % cells with motility after 48 hrs of aerobic contact: 5.4%
Trichomonas vaginalis; isolate 5
  Mean % cells with motility after 48 hrs of aerobic contact: 7.4%
Trichomonas vaginalis; isolate 6
  Mean % cells with motility after 48 hrs of aerobic contact: 0.0%
Trichomonas vaginalis; isolate 7
  Mean % cells with motility after 48 hrs of aerobic contact: 9.3%
Trichomonas vaginalis; isolate 8
  Mean % cells with motility after 48 hrs of aerobic contact: 5.6%
Trichomonas vaginalis; isolate 9
  Mean % cells with motility after 48 hrs of aerobic contact: 8.4%
Trichomonas vaginalis; isolate 10
  Mean % cells with motility after 48 hrs of aerobic contact: 10.4%
Trichomonas vaginalis; isolate 11
  Mean % cells with motility after 48 hrs of aerobic contact: 0.0%
Trichomonas vaginalis; isolate 12
  Mean % cells with motility after 48 hrs of aerobic contact: 4.2%
Trichomonas vaginalis; isolate 13
  Mean % cells with motility after 48 hrs of aerobic contact: 0.0%
Trichomonas vaginalis; isolate 14
  Mean % cells with motility after 48 hrs of aerobic contact: 6.7%
Trichomonas vaginalis; isolate 15
  Mean % cells with motility after 48 hrs of aerobic contact: 8.5%
Trichomonas vaginalis; isolate 16
  Mean % cells with motility after 48 hrs of aerobic contact: 11.4%
Trichomonas vaginalis; isolate 17
  Mean % cells with motility after 48 hrs of aerobic contact: 7.4%
Trichomonas vaginalis; isolate 18
  Mean % cells with motility after 48 hrs of aerobic contact: 8.2%
Trichomonas vaginalis; isolate 19
  Mean % cells with motility after 48 hrs of aerobic contact: 9.7%
Trichomonas vaginalis; isolate 20
  Mean % cells with motility after 48 hrs of aerobic contact: 1.2%
Trichomonas vaginalis; mean of means of the 20 isolates, composition or metranidazole 25 μg/ml
  Mean % cells with motility after 48 hrs of aerobic contact, Mean of Means: 5.5^a %
Gardnerella vaginalis
  number of isolates resistant to the reference disc: one
